Assay results reported in patent US8853230B2, “Inhibitors of JAK” (Portola Pharmaceuticals, Inc., priority 2009, dated 2014).

What was measured:
JAK2 = molecular target: T1, JAK2 (Homo sapiens, UniProt O60674); test: Z'-LYTE kinase assay, JAK2 tyrosine phosphorylation activity; type: biochemical
T1 construct: 5 μl of catalytic domain recombinant Kinase enzyme+Tyr peptide substrate (Invitrogen, Calif.); purchased Invitrogen
Procedure, shortened: (§1)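 Recombinant catalytic-domain kinase was incubated with coumarin/fluorescein-labelled Tyr6 peptide, ATP and compound (1% DMSO final) for 1 h at room temperature. Protease development then ran 1 h at room temperature. Emission ratio at 445/520 nm (excitation 400 nm) gave percent phosphorylation; IC50s came from 4-parameter logistic fits.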

Syk = Syk (Homo sapiens, UniProt P43405); test: Syk IC50 (Table 1; method not given); type: biochemical
JAK1 = molecular target: T2, JAK1 (Homo sapiens, UniProt P23458); test: Z'-LYTE kinase assay, JAK1 tyrosine phosphorylation activity; type: biochemical; conditions: read-out: JAK 1 IC50
T2 construct: 5 μl of catalytic domain recombinant Kinase enzyme+Tyr peptide substrate (Invitrogen, Calif.); purchased Invitrogen
T2 sequence (P23458 875-1153 limits assumed): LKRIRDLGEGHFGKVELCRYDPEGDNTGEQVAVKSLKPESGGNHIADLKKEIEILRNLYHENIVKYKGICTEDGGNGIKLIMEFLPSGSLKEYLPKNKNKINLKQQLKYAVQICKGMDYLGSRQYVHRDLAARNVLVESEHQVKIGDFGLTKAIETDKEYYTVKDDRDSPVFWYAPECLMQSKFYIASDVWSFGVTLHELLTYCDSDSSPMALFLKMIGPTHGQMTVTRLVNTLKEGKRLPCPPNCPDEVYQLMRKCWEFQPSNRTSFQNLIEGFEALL
Procedure, shortened: as §1

JAK3 = molecular target: T3, JAK3 (Homo sapiens, UniProt P52333); test: Z'-LYTE kinase assay, JAK3 tyrosine phosphorylation activity; type: biochemical
T3 construct: 5 μl of catalytic domain recombinant Kinase enzyme+Tyr peptide substrate (Invitrogen, Calif.); purchased Invitrogen
T3 sequence (P52333 822-1111 limits assumed): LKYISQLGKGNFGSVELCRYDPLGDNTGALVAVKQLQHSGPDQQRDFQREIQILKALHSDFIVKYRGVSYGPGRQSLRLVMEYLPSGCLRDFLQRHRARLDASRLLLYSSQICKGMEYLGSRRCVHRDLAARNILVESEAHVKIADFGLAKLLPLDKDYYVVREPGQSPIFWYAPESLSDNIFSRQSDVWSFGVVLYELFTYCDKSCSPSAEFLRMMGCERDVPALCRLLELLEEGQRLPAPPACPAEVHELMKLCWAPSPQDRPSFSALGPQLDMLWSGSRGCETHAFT
Procedure, shortened: as §1

TYK2 = molecular target: T4, TYK2 (Homo sapiens, UniProt P29597); test: Z'-LYTE kinase assay, TYK2 tyrosine phosphorylation activity; type: biochemical
T4 construct: 5 μl of catalytic domain recombinant Kinase enzyme+Tyr peptide substrate (Invitrogen, Calif.); purchased Invitrogen
T4 sequence (P29597 897-1176 limits assumed): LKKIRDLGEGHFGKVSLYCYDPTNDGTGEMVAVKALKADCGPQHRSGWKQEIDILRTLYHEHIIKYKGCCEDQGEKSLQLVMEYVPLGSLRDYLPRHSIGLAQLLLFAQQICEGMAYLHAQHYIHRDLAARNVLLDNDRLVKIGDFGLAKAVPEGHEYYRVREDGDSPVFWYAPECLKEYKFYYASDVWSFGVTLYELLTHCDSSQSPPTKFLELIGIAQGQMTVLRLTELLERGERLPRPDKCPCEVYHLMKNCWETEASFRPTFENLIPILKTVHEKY
Procedure, shortened: as §1

[1] = system: IL4-induced phospho STAT6 formation in Ramos B lymphocytes; test: Inhibition of IL4-induced phospho STAT6 formation in Ramos B lymphocytes (flow cytometry); type: cell-based, human; conditions: Homo sapiens; for inhibition at 0.2 µM: 200 nM compound, read-out: % Inhibition of IL-4 Induced STAT6 Phosphorylation 200 nM; for inhibition at 1 µM: 1 μM compound, read-out: % Inhibition of IL-4 Induced STAT6 Phosphorylation 1 μM
Procedure, shortened: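 Human Ramos B cells (0.5 million) pre-incubated 1 h at 37°C/5% CO2 with compound or DMSO, then stimulated with 1 ng/ml IL4 for 10 min. Cells were PFA-fixed, methanol-permeabilized and stained with Alexa-anti-phosphoSTAT6 (Y641); flow cytometry mean fluorescence gave percent inhibition of the IL4 signal.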

T1 sequence (O60674 849-1124 limits assumed): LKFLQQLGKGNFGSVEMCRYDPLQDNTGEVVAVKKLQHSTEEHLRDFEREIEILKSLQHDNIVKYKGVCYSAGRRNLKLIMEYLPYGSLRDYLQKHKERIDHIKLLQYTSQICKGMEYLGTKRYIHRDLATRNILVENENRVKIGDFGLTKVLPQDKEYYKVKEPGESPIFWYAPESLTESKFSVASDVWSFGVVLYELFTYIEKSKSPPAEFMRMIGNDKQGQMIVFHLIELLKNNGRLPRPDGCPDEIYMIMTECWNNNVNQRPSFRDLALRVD

## CC(=O)Nc1cccc(Nc2ncc(C(N)=O)c(N[C@H]3CCC[C@@H]3O)n2)c1 (relative stereo) [Example 53, 2-(3-acetamidophenylamino)-4-((trans)-2-hydroxycyclopentylamino)pyrimidine-5-carboxamide]
JAK2
  IC50: 10 to 100 nM
Syk
  IC50: 100 to 1000 nM
JAK1
  IC50: 10 to 100 nM
JAK3
  IC50: 1 to 10 nM

## CC(=O)Nc1cccc(Nc2ncc(C(N)=O)c(NC3CCC3)n2)c1 [Example 1, 2-(3-acetamidophenylamino)-4-(cyclobutylamino)pyrimidine-5-carboxamide]
JAK2
  IC50: 10 to 100 nM
Syk
  IC50: 100 to 1000 nM
JAK1
  IC50: 10 to 100 nM
JAK3
  IC50: 1 to 10 nM

## CC(=O)Nc1cccc(Nc2ncc(C(N)=O)c(NC[C@@H](C)c3ccccc3)n2)c1 [Example 3, (S)-2-(3-acetamidophenylamino)-4-(2-phenylpropylamino)pyrimidine-5-carboxamide]
JAK2
  IC50: 1 to 10 nM
Syk
  IC50: > 1000 nM
JAK1
  IC50: 10 to 100 nM
JAK3
  IC50: 1 to 10 nM

## CNc1nc(Nc2cccc(NC(C)=O)c2)ncc1C(N)=O [Example 8, 2-(3-acetamidophenylamino)-4-(methylamino)pyrimidine-5-carboxamide]
Syk
  IC50: 100 to 1000 nM

## CCNc1nc(Nc2cccc(NC(C)=O)c2)ncc1C(N)=O [Example 9, 2-(3-acetamidophenylamino)-4-(ethylamino)pyrimidine-5-carboxamide]
Syk
  IC50: 100 to 1000 nM

## C#CCNc1nc(Nc2cccc(NC(C)=O)c2)ncc1C(N)=O [Example 10, 2-(3-acetamidophenylamino)-4-(prop-2-ynylamino)pyrimidine-5-carboxamide]
Syk
  IC50: 100 to 1000 nM

## CC(=O)Nc1cccc(Nc2ncc(C(N)=O)c(NC(C)C)n2)c1 [Example 11, 2-(3-acetamidophenylamino)-4-(isopropylamino)pyrimidine-5-carboxamide]
Syk
  IC50: 100 to 1000 nM

## CC(=O)Nc1cccc(Nc2ncc(C(N)=O)c(NCC3CC3)n2)c1 [Example 12, 2-(3-acetamidophenylamino)-4-(cyclopropylmethylamino)pyrimidine-5-carboxamide]
Syk
  IC50: 100 to 1000 nM

## CC(=O)Nc1cccc(Nc2ncc(C(N)=O)c(NC(C)(C)C)n2)c1 [Example 13, 2-(3-acetamidophenylamino)-4-(tert-butylamino)pyrimidine-5-carboxamide]
Syk
  IC50: 100 to 1000 nM

## COCCNc1nc(Nc2cccc(NC(C)=O)c2)ncc1C(N)=O [Example 14, 2-(3-acetamidophenylamino)-4-(2-methoxyethylamino)pyrimidine-5-carboxamide]
Syk
  IC50: 100 to 1000 nM

## CC(=O)Nc1cccc(Nc2ncc(C(N)=O)c(NC3CCCC3)n2)c1 [Example 15, 2-(3-acetamidophenylamino)-4-(cyclopentylamino)pyrimidine-5-carboxamide]
JAK2
  IC50: 10 to 100 nM
Syk
  IC50: 100 to 1000 nM
JAK1
  IC50: 10 to 100 nM
JAK3
  IC50: 1 to 10 nM

## COCCCNc1nc(Nc2cccc(NC(C)=O)c2)ncc1C(N)=O [Example 16, 2-(3-acetamidophenylamino)-4-(3-methoxypropylamino)pyrimidine-5-carboxamide]
Syk
  IC50: 100 to 1000 nM

## COC(=O)Nc1cc(Nc2ncc(C(N)=O)c(NCC(F)(F)F)n2)ccc1Cl [Example 18, methyl 5-(5-carbamoyl-4-(2,2,2-trifluoroethylamino)pyrimidin-2-ylamino)-2-chlorophenylcarbamate]
JAK2
  IC50: 100 to 1000 nM
Syk
  IC50: > 1000 nM
JAK1
  IC50: > 1000 nM
JAK3
  IC50: 10 to 100 nM

## NC(=O)c1cnc(Nc2cccc(NC(=O)C3CC3)c2)nc1NC1CCCC1 [Example 19, 4-(cyclopentylamino)-2-(3-(cyclopropanecarboxamido)phenylamino)pyrimidine-5-carboxamide]
JAK2
  IC50: 10 to 100 nM
Syk
  IC50: 100 to 1000 nM
JAK1
  IC50: 10 to 100 nM
JAK3
  IC50: 1 to 10 nM

## CCC(=O)Nc1cccc(Nc2ncc(C(N)=O)c(NC3CCCC3)n2)c1 [Example 21, 4-(cyclopentylamino)-2-(3-propionamidophenylamino)pyrimidine-5-carboxamide]
JAK2
  IC50: 10 to 100 nM
Syk
  IC50: 100 to 1000 nM
JAK1
  IC50: 10 to 100 nM
JAK3
  IC50: 1 to 10 nM

## COCC(=O)Nc1cccc(Nc2ncc(C(N)=O)c(NC3CCCC3)n2)c1 [Example 22, 4-(cyclopentylamino)-2-(3-(2-methoxyacetamido)phenylamino)pyrimidine-5-carboxamide]
JAK2
  IC50: 10 to 100 nM
Syk
  IC50: 100 to 1000 nM
JAK1
  IC50: 10 to 100 nM
JAK3
  IC50: 1 to 10 nM

## COC(=O)Nc1cccc(Nc2ncc(C(N)=O)c(NC3CCCC3)n2)c1 [Example 23, methyl 3-(5-carbamoyl-4-(cyclopentylamino)pyrimidin-2-ylamino)phenylcarbamate]
JAK2
  IC50: 10 to 100 nM
Syk
  IC50: 100 to 1000 nM
JAK1
  IC50: 10 to 100 nM
JAK3
  IC50: 1 to 10 nM

## COC(=O)Nc1cc(Nc2ncc(C(N)=O)c(NC3CCCC3)n2)ccc1Cl [Example 25, methyl 5-(5-carbamoyl-4-(cyclopentylamino)pyrimidin-2-ylamino)-2-chlorophenylcarbamate]
JAK2
  IC50: 100 to 1000 nM
Syk
  IC50: 100 to 1000 nM
JAK1
  IC50: 10 to 100 nM
JAK3
  IC50: 10 to 100 nM

## NC(=O)Nc1cccc(Nc2ncc(C(N)=O)c(NC3CCCC3)n2)c1 [Example 33, 4-(cyclopentylamino)-2-(3-ureidophenylamino)pyrimidine-5-carboxamide]
JAK2
  IC50: 10 to 100 nM
Syk
  IC50: 100 to 1000 nM
JAK1
  IC50: 10 to 100 nM
JAK3
  IC50: 1 to 10 nM

## CNC(=O)Nc1cccc(Nc2ncc(C(N)=O)c(NC3CCCC3)n2)c1 [Example 34, 4-(cyclopentylamino)-2-(3-(3-methylureido)phenylamino)pyrimidine-5-carboxamide]
JAK2
  IC50: 10 to 100 nM
Syk
  IC50: 100 to 1000 nM
JAK1
  IC50: 10 to 100 nM
JAK3
  IC50: 1 to 10 nM

## CN(C)C(=O)Nc1cccc(Nc2ncc(C(N)=O)c(NC3CCCC3)n2)c1 [Example 35, 4-(cyclopentylamino)-2-(3-(3,3-dimethylureido)phenylamino)pyrimidine-5-carboxamide]
JAK2
  IC50: 10 to 100 nM
Syk
  IC50: 100 to 1000 nM
JAK1
  IC50: 10 to 100 nM
JAK3
  IC50: 1 to 10 nM

## CCNC(=O)Nc1cccc(Nc2ncc(C(N)=O)c(NC3CCCC3)n2)c1 [Example 36, 4-(cyclopentylamino)-2-(3-(3-ethylureido)phenylamino)pyrimidine-5-carboxamide]
JAK2
  IC50: 10 to 100 nM
Syk
  IC50: 100 to 1000 nM
JAK1
  IC50: 10 to 100 nM
JAK3
  IC50: 1 to 10 nM

## C[C@@H](Nc1nc(Nc2ccc(Cl)c(NC(=O)N3CCCC3)c2)ncc1C(N)=O)c1ccccc1 [Example 221, (R)-2-(4-chloro-3-(pyrrolidine-1-carboxamido)phenylamino)-4-(1-phenylethylamino)pyrimidine-5-carboxamide]
TYK2
  IC50: 100 to 1000 nM
JAK2
  IC50: 100 to 1000 nM
[1]
  inhibition at 0.2 µM: 2.3%
  inhibition at 1 µM: 6.3%
JAK1
  IC50: > 1000 nM
JAK3
  IC50: 10 to 100 nM

## NC(=O)c1cnc(Nc2cccc(NC(=O)N3CCC3)c2)nc1NCc1ccccc1 [Example 222, 2-(3-(azetidine-1-carboxamido)phenylamino)-4-(benzylamino)pyrimidine-5-carboxamide]
TYK2
  IC50: 1 to 10 nM
JAK2
  IC50: 10 to 100 nM
[1]
  inhibition at 0.2 µM: 47.7%
  inhibition at 1 µM: 86.7%
JAK1
  IC50: 10 to 100 nM
JAK3
  IC50: 1 to 10 nM

## NC(=O)c1cnc(Nc2ccc(Cl)c(NC(=O)N3CCC3)c2)nc1NCc1ccccc1 [Example 233, 2-(3-(azetidine-1-carboxamido)-4-chlorophenylamino)-4-(benzylamino)pyrimidine-5-carboxamide]
TYK2
  IC50: 10 to 100 nM
JAK2
  IC50: 100 to 1000 nM
[1]
  inhibition at 0.2 µM: 7%
  inhibition at 1 µM: 37.7%
JAK1
  IC50: 100 to 1000 nM
JAK3
  IC50: 1 to 10 nM

## NC(=O)c1cnc(Nc2ccc(F)c(NC(=O)N3CCC3)c2)nc1NCc1ccccc1 [Example 234, 2-(3-(azetidine-1-carboxamido)-4-fluorophenylamino)-4-(benzylamino)pyrimidine-5-carboxamide]
TYK2
  IC50: 10 to 100 nM
JAK2
  IC50: 10 to 100 nM
[1]
  inhibition at 0.2 µM: 34.3%
  inhibition at 1 µM: 77%
JAK1
  IC50: 10 to 100 nM
JAK3
  IC50: 1 to 10 nM

## CC(=O)Nc1cc(Nc2ncc(C(N)=O)c(NCc3ccccc3)n2)ccc1OCCN1CCCC1 [Example 244, 2-(3-acetamido-4-(2-(pyrrolidin-1-yl)ethoxy)phenylamino)-4-(benzylamino)pyrimidine-5-carboxamide]
TYK2
  IC50: 1 to 10 nM
JAK2
  IC50: 10 to 100 nM
[1]
  inhibition at 0.2 µM: 51.3%
  inhibition at 1 µM: 94.7%
JAK1
  IC50: 10 to 100 nM
JAK3
  IC50: < 1 nM

## CC(C)[C@H](C)Nc1nc(Nc2ccc(Cl)c(NC(=O)N3CCCC3)c2)ncc1C(N)=O [Example 248, (S)-2-(4-chloro-3-(pyrrolidine-1-carboxamido)phenylamino)-4-(3-methylbutan-2-ylamino)pyrimidine-5-carboxamide]
TYK2
  IC50: 10 to 100 nM
JAK2
  IC50: > 1000 nM
[1]
  inhibition at 0.2 µM: 61.3%
  inhibition at 1 µM: 94.7%
JAK1
  IC50: 10 to 100 nM
JAK3
  IC50: 10 to 100 nM
